The record followed here is ChEMBL document CHEMBL1201862, “PubChem BioAssay data set” (2004).

Among the test systems are UACC-62; SW-620; SNB-19; COLO 205; NCI-H460; OVCAR-8; IGROV-1; CCRF-CEM; HCT-15; SF-295; OVCAR-5; OVCAR-4; K562; OVCAR-3; UO-31; EKVX; SN12C; NCI-H23; SK-MEL-28; RPMI-8226.
Holding throughout (assay): DTP human tumour cell line panel, 48 h

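Exposure lasted 48 hours, with cells grown in 96-well plates and compounds tested at five concentrations. The concentration for 50% growth inhibition is given as GI50.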 The source made the active and inactive calls. Cut-off read from the data, not from the text of the source: active = GI50 up to about 1.1 µM and inactive = higher.

Turning to `C1=C2C3=[N+](CCCCC3)CC2Cc2ccsc21` (stereo unspecified), the GI50 with UACC-62 was > 100 µM (inactive); with SW-620, 93.5 µM (inactive); in the assay with SNB-19, 81.1 µM (inactive); with COLO 205, 40.6 µM (inactive); in the assay with NCI-H460, 29.9 µM (inactive); in the assay with OVCAR-8, 76.6 µM (inactive). In addition, the GI50 with IGROV-1 is > 100 µM (inactive); in the assay on CCRF-CEM, > 100 µM (inactive); in the assay with HCT-15 it was > 100 µM; in the assay on SF-295, 44.3 µM (inactive); in the assay on OVCAR-5, > 100 µM (inactive); with OVCAR-4, 43.4 µM (inactive). Besides, the GI50 in the assay on K562 is > 100 µM (inactive); in the assay with OVCAR-3, 56.5 µM (inactive); in the assay with UO-31, > 100 µM (inactive); with EKVX, 53.5 µM (inactive); in the assay on SN12C it was 67.9 µM (inactive); with NCI-H23 it was 49.9 µM (inactive). In addition, the GI50 in the assay on SK-MEL-28 is > 100 µM (inactive).
As to `CC1=N/C(=C\c2ccc([N+](=O)[O-])cc2)C(=O)O1`, the GI50 with UACC-62, in the assay on SW-620, in the assay on SNB-19, in the assay on COLO 205, with NCI-H460 and in the assay with OVCAR-8 was > 100 µM (inactive) throughout. Further, the GI50 was > 100 µM (inactive) in the assay on IGROV-1; > 100 µM in the assay on HCT-15; > 100 µM (inactive) in the assay on SF-295; > 100 µM (inactive) in the assay with OVCAR-5; > 100 µM (inactive) in the assay on OVCAR-4; > 100 µM (inactive) with K562. For the same molecule, the GI50 in the assay with OVCAR-3, in the assay with UO-31, with EKVX, with SN12C, in the assay on NCI-H23 and in the assay with SK-MEL-28 was > 100 µM (inactive) throughout. For the same molecule, the GI50 in the assay with RPMI-8226 is > 100 µM (inactive).
Consider `CCOc1ccccc1NC(=O)C1=C(C)NC(C)=C(C(=O)Nc2ccccc2OCC)C1c1ccc(NC(C)=O)cc1`, for which the GI50 was 35.6 µM (inactive) in the assay with SW-620; 96.2 µM (inactive) in the assay on SNB-19; 16.7 µM (inactive) with COLO 205; 35.7 µM (inactive) in the assay on NCI-H460; 73.5 µM (inactive) in the assay with OVCAR-8; 47.4 µM (inactive) in the assay on IGROV-1. The GI50 in the assay with CCRF-CEM was 61.4 µM (inactive); in the assay on SF-295, 13.2 µM (inactive); in the assay on OVCAR-5, 33.6 µM (inactive); in the assay with OVCAR-4, 43.8 µM (inactive); with K562 it was 37.1 µM (inactive); in the assay on OVCAR-3 it was 45.3 µM (inactive). Moreover, the GI50 is 23.6 µM (inactive) with UO-31; 38.6 µM (inactive) in the assay with EKVX; 30.2 µM (inactive) in the assay with SN12C; 31 µM (inactive) with NCI-H23; 73.8 µM (inactive) with SK-MEL-28; 47.8 µM (inactive) in the assay with RPMI-8226.
As to `NC1c2ccccc2Nc2ccccc21`, the GI50 in the assay with UACC-62 was 4.26 µM (inactive); in the assay with SW-620, 3.66 µM (inactive); in the assay with SNB-19 it was 5.18 µM (inactive); with COLO 205, 2.21 µM (inactive); with NCI-H460, 2.76 µM (inactive); with OVCAR-8, 4.34 µM (inactive). Also, the GI50 was 2.95 µM (inactive) with IGROV-1; 5.2 µM (inactive) in the assay with CCRF-CEM; 3.31 µM with HCT-15; 4.49 µM (inactive) in the assay on SF-295; 5.04 µM (inactive) with OVCAR-5; 3.54 µM (inactive) in the assay with K562. Moreover, the GI50 in the assay on OVCAR-3 was 6.08 µM (inactive); with UO-31, 3.27 µM (inactive); with EKVX, 5.71 µM (inactive); in the assay with SN12C, 4.53 µM (inactive); in the assay on NCI-H23, 4.74 µM (inactive); with SK-MEL-28, 3.54 µM (inactive). Moreover, the GI50 in the assay with RPMI-8226 was 4.56 µM (inactive).
Take `CCCCn1cc[n+](-c2nc3ccccc3n2C)c1`: the GI50 in the assay with UACC-62, with SW-620, in the assay on SNB-19, in the assay with NCI-H460, in the assay with OVCAR-8 and in the assay on IGROV-1 was > 100 µM (inactive) in each case. Moreover, the GI50 is > 100 µM (inactive) in the assay with CCRF-CEM; > 100 µM with HCT-15; > 100 µM (inactive) in the assay on SF-295; > 100 µM (inactive) with OVCAR-5; > 100 µM (inactive) in the assay on OVCAR-4; > 100 µM (inactive) in the assay on K562. The GI50 in the assay with OVCAR-3, in the assay with UO-31, with EKVX, in the assay on SN12C, in the assay with NCI-H23 and in the assay on RPMI-8226 was > 100 µM (inactive) throughout.
In the case of `COc1cc2c(cc1OC)C1Cc3cc(OC)c(OC)cc3C(C2)O1`, the GI50 with UACC-62, in the assay with SW-620, in the assay on SNB-19, in the assay with COLO 205, with NCI-H460 and with OVCAR-8 was > 100 µM (inactive) each time. Besides, the GI50 in the assay on IGROV-1 was 49.8 µM (inactive); in the assay with CCRF-CEM it was 60.1 µM (inactive); with SF-295, 95.7 µM (inactive); with OVCAR-5 it was > 100 µM (inactive); with OVCAR-4, > 100 µM (inactive); in the assay with K562, 46.7 µM (inactive). For the same molecule, the GI50 is > 100 µM (inactive) with OVCAR-3; 83.8 µM (inactive) in the assay on UO-31; > 100 µM (inactive) with EKVX; > 100 µM (inactive) in the assay on SN12C; > 100 µM (inactive) in the assay on NCI-H23; > 100 µM (inactive) with SK-MEL-28. Moreover, in the assay on RPMI-8226, the GI50 is 35.2 µM (inactive).
In the case of `COC1=C(OC)C(=O)c2cc(SC)c(=O)c(SC)cc2C1=O`, the GI50 was 2.12 µM (inactive) with UACC-62; 33.5 µM (inactive) in the assay with SW-620; 22.6 µM (inactive) in the assay with SNB-19; > 100 µM (inactive) in the assay with COLO 205; 45.5 µM (inactive) with NCI-H460; 12.1 µM (inactive) in the assay on OVCAR-8. Further, the GI50 is 33.1 µM (inactive) in the assay with IGROV-1; 2.34 µM (inactive) in the assay with CCRF-CEM; 25.1 µM in the assay with HCT-15; 15.7 µM (inactive) in the assay with SF-295; 12.2 µM (inactive) in the assay with OVCAR-4; 15.9 µM (inactive) in the assay with K562. The GI50 in the assay on OVCAR-3 is 8.93 µM (inactive); with UO-31 it was 19.8 µM (inactive); in the assay on EKVX, 21.2 µM (inactive); with SN12C, 14.7 µM (inactive); in the assay with NCI-H23 it was 5.75 µM (inactive); in the assay on SK-MEL-28 it was 13.5 µM (inactive). In the assay with RPMI-8226, the GI50 is 15.2 µM (inactive).
Take `Cc1cc(C)c(NC(=O)/C=C/c2ccccc2)c(C)c1`: the GI50 is 22.9 µM (inactive) in the assay with UACC-62; > 100 µM (inactive) in the assay with SW-620; 61.9 µM (inactive) in the assay on SNB-19; > 100 µM (inactive) in the assay with NCI-H460; > 100 µM (inactive) with OVCAR-8; > 100 µM (inactive) with IGROV-1. The GI50 with CCRF-CEM is > 100 µM (inactive); in the assay on HCT-15, 78 µM; in the assay with SF-295, 87.1 µM (inactive); in the assay with OVCAR-5 it was > 100 µM (inactive); in the assay with OVCAR-4, 94.6 µM (inactive); in the assay on K562 it was 32.6 µM (inactive). The GI50 with OVCAR-3, with UO-31, in the assay on EKVX, in the assay with NCI-H23, with SK-MEL-28 and in the assay with RPMI-8226 was > 100 µM (inactive) each time.
As to `COC(=O)CSc1nc2[nH]c(SC)c(C(N)=O)c2c(=O)n1-c1ccccc1`, the GI50 in the assay with UACC-62, in the assay with SW-620, in the assay on COLO 205, with OVCAR-8, in the assay with IGROV-1 and in the assay with CCRF-CEM was > 10 µM (inactive) throughout. Moreover, the GI50 is > 10 µM in the assay on HCT-15; > 10 µM (inactive) with SF-295; > 10 µM (inactive) in the assay on OVCAR-4; > 10 µM (inactive) in the assay with K562; > 10 µM (inactive) in the assay with EKVX; > 10 µM (inactive) in the assay with SN12C. Besides, the GI50 in the assay on NCI-H23, in the assay with SK-MEL-28 and in the assay on RPMI-8226 was > 10 µM (inactive) in each case.
Regarding `CC[C@@H]1CN2CCC1C[C@@H]2C(O)c1ccnc2ccc(OCCN3CCN(CCOc4ccc5nccc(C(O)[C@@H]6C[C@@H]7CCN6C[C@@H]7CC)c5c4)CC3)cc12` (stereo partly specified), the GI50 in the assay with UACC-62 is 16.1 µM (inactive); in the assay with SW-620 it was 21.8 µM (inactive); in the assay with SNB-19, 14.5 µM (inactive); in the assay with COLO 205, 14.7 µM (inactive); in the assay on NCI-H460, 17.3 µM (inactive); in the assay on OVCAR-8 it was 19.3 µM (inactive). Moreover, the GI50 was 13.9 µM (inactive) with IGROV-1; 4.45 µM (inactive) with CCRF-CEM; 24.2 µM in the assay on HCT-15; 16.3 µM (inactive) in the assay on SF-295; 18.6 µM (inactive) with OVCAR-5; 19.8 µM (inactive) in the assay on OVCAR-4. For the same molecule, the GI50 is 2.63 µM (inactive) in the assay with K562; 19.6 µM (inactive) with OVCAR-3; 17.1 µM (inactive) in the assay with EKVX; 14.3 µM (inactive) in the assay with SN12C; 20.7 µM (inactive) in the assay on NCI-H23; 17.1 µM (inactive) with SK-MEL-28. Further, the GI50 in the assay on RPMI-8226 was 2.59 µM (inactive).
`O=C(N[C@H]1c2ccsc2/C(=N/O)[C@H]1O)C(F)(F)F`: the GI50 in the assay with UACC-62, with SW-620, in the assay with SNB-19, in the assay on COLO 205, in the assay on NCI-H460 and in the assay with OVCAR-8 was > 100 µM (inactive) in each case. For the same molecule, the GI50 was > 100 µM (inactive) with IGROV-1; > 100 µM (inactive) in the assay on CCRF-CEM; > 100 µM with HCT-15; > 100 µM (inactive) in the assay on SF-295; > 100 µM (inactive) in the assay on OVCAR-5; > 100 µM (inactive) with K562. The GI50 with OVCAR-3, in the assay on UO-31, in the assay on EKVX, in the assay on SN12C, with NCI-H23 and in the assay with SK-MEL-28 was > 100 µM (inactive) each time.

What is called GI50 is the concentration that inhibits growth by half.
